Data set [1] in a line: Oxidation potential of dye (vs SCE). It is filed as physicochemical. Particulars: comparative dyes; method not stated. Here is the method: The value of oxidation potential (Eox) can be easily measured by those skilled in the art.
In some detail, for the measurement of oxidation potential, the test specimen is dissolved in a solvent such as dimethyl formamide and acetonitrile containing a supporting electrolyte such as sodium perchlorate and tetrapropylammonium perchlorate in a concentration of from […] to 1×10^−6 mol/l. The solution is then measured for oxidation potential with respect to SCE (saturated calomel electrode) by cyclic voltametry or DC polarography, etc. This value may deviate by a few tens of millivolts when affected by the difference in potential between liquids or the resistivity of sample solution, but the reproducibility of potential can be assured by putting a standard sample (e.g., hydroquinone) in the sample solution.
In order to unequivocally define oxidation potential, in the present invention, the value (vs SCE) measured in dimethyl formamide containing 0.1 mol dm^−3 of tetrapropylammonium perchlorate as a supporting electrolyte (dye concentration: 0.001 mol dm^−3) is defined as oxidation potential of dye.

Data set [2] can be described thus: Absorption spectrum of dye. It is filed as physicochemical. Particulars: comparative dyes; ratio as printed. From the text:
To this end, the dye to be used in the invention preferably is a yellow dye having a λmax at a wavelength range of from 390 nm to 470 nm and a I(λmax+70 nm)/I(λmax) ratio of not greater than 0.2, more preferably not greater than 0.1 in which I(λmax) is the absorbance at λmax and I(λmax+70 nm) is the absorbance at λmax+70 nm. Ideally speaking, the lower limit of the ratio is 0. In actuality, however, the lower limit of the ratio is about 0.01.

In the case of `Cc1nn(-c2ccc(S(=O)(=O)[O-])cc2)c(O)c1/N=N/c1cccc(S(=O)(=O)Nc2cc(C(=O)[O-])cc(C(=O)[O-])c2)c1.[K+].[K+].[K+]` [Yellow dye (C)], the oxidation potential in data set [1] is on record as ≤ 1.0 V (vs SCE). Moreover, in data set [2], the “I(λmax)/I(λmax+70 nm) ratio” value was ≤ 0.4.

For Direct Yellow 11 [Yellow dye (D)], the oxidation potential in data set [1] was ≤ 1.0 V (vs SCE). Also, in data set [2], the “I(λmax)/I(λmax+70 nm) ratio” value is “greater than 0.4”.

(Values after patent US7370953B2, “Inkjet recording ink” (FUJIFILM Corporation, priority 2003, dated 2008).)
